PubChem BioAssay AID256 (DTP/NCI, 2004)
“And” between values parts separate entries of the source, which are not always exact repeats. Equal entries are not always repeated. Toxic doses and inconclusive results are not listed. How the source made its calls: active means survival T/C of 150% or more; inactive means T/C below 125% in these data.

Tested on: CD2F1 mice, L1210 leukemia ip, survival T/C
Assay: NCI In Vivo Anticancer Drug Screen. Data for tumor model L1210 Leukemia (intraperitoneal) in CD2F1 (CDF1) mice
Conditions: higher = longer survival
Outline: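 Implant tumor; dose compound or vehicle; measure endpoint in both groups; report treated divided by control.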

[1] = endpoint: mean survival time, dose: 50.0 mg/kg/injection, schedule: Q01DX009 (ip), vehicle: saline with Tween-80
[2] = endpoint: mean survival time, dose: 100.0 mg/kg/injection, schedule: Q01DX009 (ip), vehicle: saline with Tween-80
[3] = endpoint: mean survival time, dose: 200.0 mg/kg/injection, schedule: Q01DX009 (ip), vehicle: saline with Tween-80
[4] = endpoint: mean survival time, dose: 100.0 mg/kg/injection, schedule: Q01DX009 (ip), vehicle: saline
[5] = endpoint: mean survival time, dose: 200.0 mg/kg/injection, schedule: Q01DX009 (ip), vehicle: saline
[6] = endpoint: mean survival time, dose: 100.0 mg/kg/injection, schedule: Q04DX002 (ip), vehicle: saline with Tween-80
[7] = endpoint: mean survival time, dose: 100.0 mg/kg/injection, schedule: Q04DX003 (ip), vehicle: saline with Tween-80
[8] = endpoint: mean survival time, dose: 200.0 mg/kg/injection, schedule: Q04DX003 (ip), vehicle: saline with Tween-80
[9] = endpoint: mean survival time, dose: 400.0 mg/kg/injection, schedule: Q04DX003 (ip), vehicle: saline with Tween-80
[10] = endpoint: mean survival time, dose: 100.0 mg/kg/injection, schedule: Q01DX001 (ip), vehicle: saline with Tween-80
[11] = endpoint: mean survival time, dose: 200.0 mg/kg/injection, schedule: Q01DX001 (ip), vehicle: saline with Tween-80
[12] = endpoint: mean survival time, dose: 400.0 mg/kg/injection, schedule: Q01DX001 (ip), vehicle: saline with Tween-80
[13] = endpoint: mean survival time, dose: 50.0 mg/kg/injection, schedule: Q01DX001 (ip), vehicle: saline
[14] = endpoint: mean survival time, dose: 200.0 mg/kg/injection, schedule: Q01DX001 (ip), vehicle: saline
[15] = endpoint: mean survival time, dose: 400.0 mg/kg/injection, schedule: Q01DX001 (ip), vehicle: saline

Measured: T/C

CN(C)c1ncnc2c1cnn2C1OC(CO)C(O)C1O (configuration not stated)
inactive: endpoint: mean survival time, dose: 12.5 mg/kg/injection, schedule: Q01DX005 (ip), vehicle: water 93 % of control | endpoint: mean survival time, dose: 25.0 mg/kg/injection, schedule: Q01DX005 (ip), vehicle: water 90 % of control | endpoint: mean survival time, dose: 50.0 mg/kg/injection, schedule: Q01DX005 (ip), vehicle: water 107 % of control | endpoint: mean survival time, dose: 100.0 mg/kg/injection, schedule: Q01DX005 (ip), vehicle: water 100 % of control | endpoint: mean survival time, dose: 200.0 mg/kg/injection, schedule: Q01DX005 (ip), vehicle: water 100 % of control

COc1ccc(/C=N/NC(=O)CNC(=O)Nc2cccc(C(F)(F)F)c2)cc1
inactive: [1] 92 % of control | [2] 88 % of control | [3] 92 % of control

CN(C)P(=O)(N(C)C)N(C)C
inactive: [4] 105 % of control | [5] 104 % of control | endpoint: mean survival time, dose: 400.0 mg/kg/injection, schedule: Q01DX009 (ip), vehicle: saline 107 % of control

S=C(Nc1ccccn1)c1ccccn1
inactive: [6] 111 % of control | [7] 100 % of control | endpoint: mean survival time, dose: 200.0 mg/kg/injection, schedule: Q04DX002 (ip), vehicle: saline with Tween-80 95 % of control | [8] 94 % of control | endpoint: mean survival time, dose: 400.0 mg/kg/injection, schedule: Q04DX002 (ip), vehicle: saline with Tween-80 103 % of control | [9] 103 % of control

[Cl][Pt+2][Cl].[NH-]C(C(=O)O)c1ccccc1.[NH-]C(C(=O)O)c1ccccc1 (configuration not stated)
inactive: endpoint: median survival time, dose: 3.12 mg/kg/injection, schedule: Q04DX003 (ip), vehicle: saline 103 % of control | endpoint: median survival time, dose: 6.25 mg/kg/injection, schedule: Q04DX003 (ip), vehicle: saline 103 % of control | endpoint: median survival time, dose: 12.5 mg/kg/injection, schedule: Q04DX003 (ip), vehicle: saline 100 % of control | endpoint: median survival time, dose: 25.0 mg/kg/injection, schedule: Q04DX003 (ip), vehicle: saline 107 % of control | endpoint: median survival time, dose: 50.0 mg/kg/injection, schedule: Q04DX003 (ip), vehicle: saline 101 % of control | endpoint: median survival time, dose: 100.0 mg/kg/injection, schedule: Q04DX003 (ip), vehicle: saline 123 % of control

O=C1/C(=C/c2ccccc2)C=C(c2ccccc2)N1Cc1ccccc1
inactive: endpoint: mean survival time, dose: 25.0 mg/kg/injection, schedule: Q04DX002 (ip), vehicle: saline with Tween-80 103 % of control | endpoint: mean survival time, dose: 50.0 mg/kg/injection, schedule: Q04DX002 (ip), vehicle: saline with Tween-80 100 % of control | [6] 100 % of control

O=Cc1ccc(O)c(Cl)c1
inactive: [10] 96 % of control | [11] 104 % of control | [12] 93 % of control

COC(=O)C(CC(C)C)NC(=O)c1ccccc1 (configuration not stated)
inactive: [7] 98 % of control | [8] 97 % of control | [9] 95 % of control

CCCCCCOc1ccc(/C=N\N=C\c2ccc(OCCCCCC)cc2)cc1
inactive: [7] 91 % of control | [8] 89 % of control | [9] 91 % of control

Brc1ccc(C[N+]23CN4CN(CN(C4)C2)C3)cc1
inactive: endpoint: mean survival time, dose: 12.5 mg/kg/injection, schedule: Q01DX009 (ip), vehicle: saline with Tween-80 102 % of control | endpoint: mean survival time, dose: 25.0 mg/kg/injection, schedule: Q01DX009 (ip), vehicle: saline with Tween-80 102 % of control | [1] 97 % of control | [2] 96 % of control | [3] 94 % of control

O=C1Nc2ccccc2/C1=N/N=C/c1cc(Cl)cc(Cl)c1O
inactive: [10] 94 % of control | [12] 95 % of control

Cc1cccc(Cl)c1NC(=O)Nc1ccc(C(=O)O)c(O)c1
inactive: [2] 97 % of control | [3] 103 % of control | endpoint: mean survival time, dose: 400.0 mg/kg/injection, schedule: Q01DX009 (ip), vehicle: saline with Tween-80 114 % of control

NC(C(=O)O)C(CC(=O)O)C(=O)O (configuration not stated)
inactive: endpoint: mean survival time, dose: 100.0 mg/kg/injection, schedule: Q04DX002 (ip), vehicle: saline 111 % of control | endpoint: mean survival time, dose: 200.0 mg/kg/injection, schedule: Q04DX002 (ip), vehicle: saline 106 % of control | endpoint: mean survival time, dose: 400.0 mg/kg/injection, schedule: Q04DX002 (ip), vehicle: saline 106 % of control

Cc1cc([N+](=O)[O-])cc(C)c1O
inactive: [7] 100 % of control | [8] 96 % of control | [9] 100 % of control

NC1CCC(C(=O)O)CC1 (configuration not stated)
inactive: endpoint: mean survival time, dose: 25.0 mg/kg/injection, schedule: Q01DX009 (ip), vehicle: saline 105 % of control | endpoint: mean survival time, dose: 50.0 mg/kg/injection, schedule: Q01DX009 (ip), vehicle: saline 97 % of control and 105 % of control | [4] 94 % of control and 102 % of control | [5] 102 % of control

O=C(/C=C/c1cccnc1)/C=C/c1cccnc1
inactive: endpoint: mean survival time, dose: 6.25 mg/kg/injection, schedule: Q01DX009 (ip), vehicle: other 105 % of control | endpoint: mean survival time, dose: 12.5 mg/kg/injection, schedule: Q01DX009 (ip), vehicle: other 105 % of control | endpoint: mean survival time, dose: 12.5 mg/kg/injection, schedule: Q04DX003 (ip), vehicle: acetone 104 % of control | endpoint: mean survival time, dose: 25.0 mg/kg/injection, schedule: Q01DX009 (ip), vehicle: other 107 % of control | endpoint: mean survival time, dose: 25.0 mg/kg/injection, schedule: Q04DX003 (ip), vehicle: acetone 103 % of control | endpoint: median survival time, dose: 3.13 mg/kg/injection, schedule: Q01DX005 (ip), vehicle: Klucel (hydroxypropylcellulose) (HPC) 102 % of control | endpoint: median survival time, dose: 6.25 mg/kg/injection, schedule: Q01DX005 (ip), vehicle: Klucel (hydroxypropylcellulose) (HPC) 97 % of control | endpoint: median survival time, dose: 12.5 mg/kg/injection, schedule: Q01DX005 (ip), vehicle: Klucel (hydroxypropylcellulose) (HPC) 95 % of control | endpoint: median survival time, dose: 25.0 mg/kg/injection, schedule: Q01DX005 (ip), vehicle: Klucel (hydroxypropylcellulose) (HPC) 98 % of control | endpoint: median survival time, dose: 50.0 mg/kg/injection, schedule: Q01DX005 (ip), vehicle: Klucel (hydroxypropylcellulose) (HPC) 100 % of control

CC(=O)c1ccc(N=C=O)cc1
inactive: endpoint: mean survival time, dose: 25.0 mg/kg/injection, schedule: Q01DX001 (ip), vehicle: saline with Tween-80 100 % of control | endpoint: mean survival time, dose: 50.0 mg/kg/injection, schedule: Q01DX001 (ip), vehicle: saline with Tween-80 88 % of control | [10] 92 % of control

O=C1C=CC(=O)O1 (tested in a mixture with another compound)
inactive: endpoint: mean survival time, dose: 1.56 mg/kg/injection, schedule: Q01DX001 (ip), vehicle: other 109 % of control | endpoint: mean survival time, dose: 1.56 mg/kg/injection, schedule: Q04DX003 (ip), vehicle: other 95 % of control | endpoint: mean survival time, dose: 3.12 mg/kg/injection, schedule: Q01DX001 (ip), vehicle: other 105 % of control | endpoint: mean survival time, dose: 3.12 mg/kg/injection, schedule: Q04DX003 (ip), vehicle: other 97 % of control | endpoint: mean survival time, dose: 6.25 mg/kg/injection, schedule: Q04DX003 (ip), vehicle: other 97 % of control | [13] 115 % of control | [14] 117 % of control | [15] 117 % of control | endpoint: mean survival time, dose: 1000.0 mg/kg/injection, schedule: Q01DX001 (ip), vehicle: saline 121 % of control

Cc1cccc(Oc2ccc(C(F)(F)F)cc2[N+](=O)[O-])c1
inactive: [10] 98 % of control | [11] 90 % of control | [12] 91 % of control

O=C1OC(C(=O)O)Cc2ccccc21 (configuration not stated)
inactive: [13] 102 % of control | endpoint: mean survival time, dose: 100.0 mg/kg/injection, schedule: Q01DX001 (ip), vehicle: saline 100 % of control | [14] 110 % of control | [15] 103 % of control

Cc1cccc(CCF)c1
inactive: [10] 110 % of control | [11] 107 % of control | [12] 98 % of control
